Where a name gives a salt, the structure may show the parent alone.
Biological target: T1, human renin (Homo sapiens, UniProt P00797)
T1 sequence (P00797 67-406): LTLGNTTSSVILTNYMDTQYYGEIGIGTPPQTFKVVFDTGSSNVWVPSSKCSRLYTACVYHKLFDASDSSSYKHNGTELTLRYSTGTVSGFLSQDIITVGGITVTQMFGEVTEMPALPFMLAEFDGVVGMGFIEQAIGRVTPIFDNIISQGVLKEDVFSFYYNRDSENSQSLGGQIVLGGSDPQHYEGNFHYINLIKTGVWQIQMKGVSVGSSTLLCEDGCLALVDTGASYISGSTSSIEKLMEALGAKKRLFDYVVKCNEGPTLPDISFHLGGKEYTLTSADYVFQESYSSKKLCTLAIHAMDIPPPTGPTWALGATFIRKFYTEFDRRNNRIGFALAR
Test: In vitro test with pure human renin
Assay type: biochemical
Conditions: human tetradecapeptide renin substrate (hTD), pH 7.4, three hours at 37° C., angiotensin I via RIA
Protocol: In vitro test with pure human renin
The test is carried out in Eppendorf test tubes. The incubation mixture consists of (1) 100 μl of human renin in buffer A (0.1M sodium phosphate solution, pH 7.4, containing 0.1% bovine serum albumin, 0.1% sodium azide and 1 mM ethylenediaminetetraacetic acid), sufficient for a renin activity of 2-3 ng of angiotensin I/ml/hr.; (2) 145 μl of buffer A; (3) 30 μl of 10 μM human tetradecapeptide renin substrate (hTD) in 10 mM hydrochloric acid; (4) 15 μl of dimethyl sulphoxide with or without inhibitor and (5) 10 μl of a 0.03 molar solution of hydroxyquinoline sulphate in water.
The samples are incubated for three hours at 37° C. or 4° C. in triplicate. 2×100 μl samples per experimental test tube are used in order to measure the production of angiotensin I via RIA (standard radioimmunoassay; clinical assay solid phase kit). Cross reactivities of the antibody used in the RIA are: angiotensin I 100%; angiotensin II 0.0013%; hTD (angiotensin I-Val-Ile-His-Ser-OH) 0.09%. The production of angiotensin I is determined by the difference between the experiment at 37° C. and that at 4° C.
The following controls are carried out:
(a) Incubation of hTD samples without renin and without inhibitor at 37° C. and 4° C. The difference between these two values gives the base value of the angiotensin I production.
(b) Incubation of hTD samples with renin, but without inhibitor at 37° C. and 4° C. The difference between these values gives the maximal value of angiotensin I production.
In each sample the base value of the angiotensin I production is subtracted from the angiotensin I production which is determined. The difference between the maximal value and the base value gives the value of the maximal substrate hydrolysis (=100%) by renin.
The results are given as IC50 values which denote that concentration of the inhibitor at which the enzymatic activity is inhibited by 50%. The IC50 values are determined from a linear regression curve from a logit-log plot.

Compound | IC50
CC(C)(N)CS(=O)(=O)C[C@@H](Cc1ccccc1)C(=O)N[C@@H](Cc1c[nH]cn1)C(=O)N[C@@H](CC1CCCCC1)[C@@H](O)[C@@H](O)C1CC1 [B, (S)-α-[(S)-α-[[(2-Amino-2-methylpropyl)sulphonyl]methyl]hydrocinnamamido]-N-[(1S,2R,3S)-1-(cyclohexylmethyl)-3-cyclopropyl-2,3-dihydroxypropyl]imidazole-4-propionamide diacetate] | 17 nM
CC(C)(C)S(=O)(=O)C[C@@H](Cc1ccccc1)C(=O)N[C@@H](Cc1c[nH]cn1)C(=O)N[C@@H](CC1CCCCC1)[C@@H](O)[C@@H](F)C1CC1 [E, (S)-α-[(S)-α-[(tert-Butylsulphonyl)methyl]hydrocinnamamido]-N-[(1S,2R,3S)-1-(cyclohexylmethyl)-3-cyclopropyl-3-fluoro-2-hydroxypropyl]imidazole-4-propionamide] | 2.3 nM
O=C(N[C@@H](Cc1c[nH]cn1)C(=O)N[C@@H](CC1CCCCC1)[C@@H](O)[C@@H](O)C1CC1)c1cc2ccccc2[nH]1 [F, N-[(S)-1-[[(1S,2R,3S)-1-(Cyclohexylmethyl)-3-cyclopropyl-2,3-dihydroxypropyl]carbamoyl]-2-imidazol-4-ylethyl]indole-2-carboxamide] | 21 nM
O=C(N[C@@H](CC1CCCCC1)[C@@H](O)[C@@H](O)C1CC1)[C@H](Cc1c[nH]cn1)NC(=O)[C@H](Cc1ccccc1)OC(=O)N1CCCCC1 [D, (S)-α-[[(S)-1-[[(1S,2R,3S)-1-(Cyclohexylmethyl)-3-cyclopropyl-2,3-dihydroxypropyl]carbamoyl]-2-imidazol-4-ylethyl]carbamoyl]phenethyl 1-piperidinecarboxylate] | 1.2 nM
CC(C)(CN)S(=O)(=O)C[C@@H](Cc1ccccc1)C(=O)N[C@@H](Cc1c[nH]cn1)C(=O)N[C@@H](CC1CCCCC1)[C@@H](O)[C@@H](O)C1CC1 [A, (S)-α-[(S)-α-[[[(2-Amino-1,1-dimethylethyl)sulphonyl]methyl]hydrocinnamamido]-N-[(1S,2R,3S)-1-(cyclohexylmethyl)-3-cyclopropyl-2,3-dihydroxypropyl]imidazole-4-propionamidedihydrochloride] | 1.8 nM

Reference: patent publication US5688946A, “Amino acid derivatives having renin inhibiting activity” (Hoffmann La Roche Inc., priority 1989, dated 1997)
